{"source": "patent US20120202701A1", "about": "“AN ANTIBODY-GLYCAN COMPLEX TARGETING THE DISIALYL CORE II AND SIALYL LEWIS X STRUCTURES, AND USES THEREOF INVOLVING ANALYSIS OF STEM CELLS OR CANCER CELLS” (GLYKOS FINLAND OY, priority 2009, published 2012)", "data": [{"test_system": "mAb CHO-131", "experiment": "Glycan microarray analysis (Consortium for Functional Glycomics, printed array version 4.0), glycan binding of mAb CHO-131", "conditions": "glycan microarray, as described", "description": "(§1) mAb CHO-131 was purchased from R&D Systems (MAB996). mAb CSLEX was purchased form BD Biosciences (551344). Glycan microarray analysis was carried out by the Consortium for Functional Glycomics. Glycan microarrays were printed as described (Blixt 2004). Version 4.0 of the printed glycan array was used for analysis. Binding analysis was performed at 50 μg/ml of antibody. Data are reported as average RFU of 6 replicates after removal of highest and lowest values.", "values": [{"compound": "CC(=O)N[C@H]1[C@H](OCCCN)O[C@H](CO)[C@@H](O)[C@@H]1O[C@@H]1O[C@H](C(=O)O)[C@@H](O)[C@H](O)[C@H]1O", "note": "[Chart Number 299, GlcAb1-3GlcNAcb-Sp8, reference compound]", "binding to CHO-131 antibody, in words": "some binding"}]}, {"test_system": "mAb CHO-131", "experiment": "Glycan microarray analysis (Consortium for Functional Glycomics, printed array version 4.0), glycan binding of mAb CHO-131", "conditions": "mAb CHO-131 at 50 μg/ml; average RFU of 6 replicates after removal of highest and lowest values", "description": "as §1", "units": {"RFU": "RFU"}, "values": [{"compound": "NCCCO[C@@H]1O[C@H](COS(=O)(=O)O)[C@@H](O[C@@H]2O[C@H](CO)[C@H](O)[C@H](OS(=O)(=O)O)[C@H]2O)[C@H](O)[C@H]1O", "note": "[compound 25]", "RFU": 903}, {"compound": "CC(=O)N[C@H]1[C@H](OCCN)O[C@H](COS(=O)(=O)O)[C@@H](O[C@@H]2O[C@H](CO)[C@H](O)[C@H](OS(=O)(=O)O)[C@H]2O)[C@@H]1O", "note": "[compound 31]", "RFU": 266}, {"compound": "CC(=O)N[C@H]1[C@H](OCCCN)O[C@H](COS(=O)(=O)O)[C@@H](O[C@@H]2O[C@H](CO)[C@H](O)[C@H](OS(=O)(=O)O)[C@H]2O)[C@@H]1O", "note": "[compound 32]", "RFU": 584}, {"compound": "NCCCO[C@@H]1O[C@H](CO)[C@H](O)[C@H](OS(=O)(=O)O)[C@H]1O", "note": "[compound 35]", "RFU": 345}, {"compound": "CC(=O)N[C@H]1[C@H](OCCN)O[C@H](CO)[C@@H](O[C@@H]2O[C@H](COS(=O)(=O)O)[C@H](OS(=O)(=O)O)[C@H](O)[C@H]2O)[C@@H]1O", "note": "[compound 36]", "RFU": 427}, {"compound": "NCCCO[C@@H]1O[C@H](COS(=O)(=O)O)[C@@H](O[C@@H]2O[C@H](COS(=O)(=O)O)[C@H](O)[C@H](O)[C@H]2O)[C@H](O)[C@H]1O", "note": "[compound 42]", "RFU": 505}, {"compound": "NCCO[C@@H]1O[C@H](COS(=O)(=O)O)[C@@H](O[C@@H]2O[C@H](CO)[C@H](O)[C@H](O)[C@H]2O)[C@H](O)[C@H]1O", "note": "[compound 146]", "RFU": 148}, {"compound": "NCCCO[C@H]1O[C@H](C(=O)O)[C@@H](O)[C@H](O)[C@H]1O", "note": "[compound 192]", "RFU": 227}, {"compound": "NCCCO[C@@H]1O[C@H](C(=O)O)[C@@H](O)[C@H](O)[C@H]1O", "note": "[compound 193]", "RFU": 274}, {"compound": "CC(=O)N[C@H]1C(OCCCN)O[C@H](COS(=O)(=O)O)[C@@H](O[C@@H]2O[C@H](CO)[C@H](O)[C@H](OS(=O)(=O)O)[C@H]2O)[C@@H]1O[C@@H]1O[C@@H](C)[C@@H](O)[C@@H](O)[C@@H]1O", "note": "(stereo partly shown) [compound 210]", "RFU": 403}, {"compound": "C[C@@H]1O[C@@H](O[C@H]2[C@H](O[C@H]3[C@H](O)[C@@H](O)C(OCCN)O[C@@H]3COS(=O)(=O)O)O[C@H](COS(=O)(=O)O)[C@H](O)[C@@H]2O)[C@@H](O)[C@H](O)[C@@H]1O", "note": "(stereo partly shown) [compound 213]", "RFU": 1100}, {"compound": "CC(=O)N[C@H]1[C@H](OCCCN)O[C@H](COS(=O)(=O)O)[C@@H](O[C@@H]2O[C@H](CO)[C@H](O)[C@H](O[C@]3(C(=O)O)C[C@H](O)[C@@H](NC(C)=O)[C@H]([C@H](O)[C@H](O)CO)O3)[C@H]2O)[C@@H]1O[C@@H]1O[C@@H](C)[C@@H](O)[C@@H](O)[C@@H]1O", "note": "[compound 241]", "RFU": 256}, {"compound": "CC(=O)N[C@H]1[C@H](OCCCN)O[C@H](COS(=O)(=O)O)[C@@H](O[C@@H]2O[C@H](CO[C@]3(C(=O)O)C[C@H](O)[C@@H](NC(C)=O)[C@H]([C@H](O)[C@H](O)CO)O3)[C@H](O)[C@H](O)[C@H]2O)[C@@H]1O", "note": "[compound 256]", "RFU": 243}, {"compound": "C[C@@H]1O[C@@H](O[C@H]2[C@H](O[C@@H]3O[C@H](CO)[C@H](O)[C@H](O)[C@H]3O)[C@@H](COS(=O)(=O)O)OC(OCCN)[C@@H]2O)[C@@H](O)[C@H](O)[C@@H]1O", "note": "(stereo partly shown) [compound 281]", "RFU": 138}, {"compound": "CC(=O)N[C@H]1[C@H](OCCN)O[C@H](CO)[C@@H](O[C@@H]2O[C@H](CO)[C@H](O)[C@H](O[C@]3(C(=O)O)C[C@H](O)[C@@H](NC(C)=O)[C@H]([C@H](O)[C@H](O)COC(C)=O)O3)[C@H]2O)[C@@H]1O", "note": "[compound 323]", "RFU": 271}, {"compound": "CC(=O)N[C@H]1[C@H](OCCN)O[C@H](CO)[C@@H](O[C@@H]2O[C@H](CO)[C@H](O)[C@H](O[C@@H]3O[C@H](COS(=O)(=O)O)[C@@H](O)[C@H](O)[C@H]3NC(C)=O)[C@H]2O)[C@@H]1O", "note": "[compound 351]", "RFU": 138}, {"compound": "CC(=O)N[C@H]1C(OCCN)O[C@H](COS(=O)(=O)O)[C@@H](O)[C@@H]1O[C@@H]1O[C@H](COS(=O)(=O)O)[C@H](O)[C@H](O)[C@H]1O", "note": "(stereo partly shown) [compound 440]", "RFU": 1773}]}, {"test_system": "mAb CSLEX", "experiment": "Glycan microarray analysis (Consortium for Functional Glycomics, printed array version 4.0), glycan binding of mAb CSLEX", "conditions": "mAb CSLEX at 50 μg/ml; average RFU of 6 replicates after removal of highest and lowest values", "description": "as §1", "units": {"RFU": "RFU"}, "values": [{"compound": "CC(=O)N[C@H]1[C@H](OCCN)O[C@H](CO)[C@@H](O[C@@H]2O[C@H](CO)[C@H](O)[C@H](O[C@H]3O[C@H](CO)[C@H](O)[C@H](O)[C@H]3NC(C)=O)[C@H]2O[C@@H]2O[C@@H](C)[C@@H](O)[C@@H](O)[C@@H]2O)[C@@H]1O", "note": "[compound 82]", "RFU": 30}, {"compound": "CC(=O)N[C@H]1[C@H](O[C@H]2[C@@H](O)[C@@H](CO)O[C@H](OCCCN)[C@@H]2NC(C)=O)O[C@H](CO)[C@H](O)[C@@H]1O", "note": "[compound 91]", "RFU": 56}, {"compound": "CC(=O)NC1C(O)CC(OC2C(O)C(OC3C(CO)OC(OCCN)C(O)C3O)OC(CO)C2OC2OC(CO)C(O)C(OC3OC(CO)C(O)C(O)C3O)C2NC(C)=O)(C(=O)O)OC1C(O)C(O)CO", "note": "(stereo not shown) [compound 135]", "RFU": 28}, {"compound": "CC(=O)N[C@H]1[C@H](O[C@@H]2[C@H](O)[C@@H](O)[C@H](O[C@H]3[C@H](O)[C@@H](O)[C@H](OCCCN)O[C@@H]3CO)O[C@@H]2CO)O[C@H](CO)[C@H](O)[C@@H]1O[C@@H]1O[C@H](CO)[C@H](O)[C@H](O)[C@H]1O", "note": "[compound 136]", "RFU": 58}, {"compound": "NCCCO[C@@H]1O[C@H](CO)[C@H](O)[C@H](O[C@@H]2O[C@H](CO)[C@H](O)[C@H](O)[C@H]2O)[C@H]1O", "note": "[compound 137]", "RFU": 37}, {"compound": "CC(=O)N[C@H]1[C@H](O[C@@H]2[C@H](O)[C@@H](O)[C@H](O[C@H]3[C@H](O[C@@H]4O[C@@H](C)[C@@H](O)[C@@H](O)[C@@H]4O)[C@@H](NC(C)=O)[C@H](OCCN)O[C@@H]3CO)O[C@@H]2CO)O[C@H](CO)[C@@H](O[C@@H]2O[C@H](CO)[C@H](O)[C@H](O)[C@H]2O)[C@@H]1O[C@@H]1O[C@@H](C)[C@@H](O)[C@@H](O)[C@@H]1O", "note": "[compound 144]", "RFU": 28}, {"compound": "CC(=O)N[C@H]1[C@H](O[C@H]2[C@@H](O)[C@@H](CO)O[C@@H](O[C@H]3[C@H](O)[C@@H](O)[C@H](OCCN)O[C@@H]3CO)[C@@H]2O)O[C@H](CO)[C@@H](O[C@@H]2O[C@H](CO)[C@H](O)[C@H](O)[C@H]2O)[C@@H]1O", "note": "[compound 155]", "RFU": 29}, {"compound": "CC(=O)N[C@H]1[C@H](OCCCN)O[C@H](CO)[C@@H](O[C@@H]2O[C@H](CO)[C@H](O)[C@H](O)[C@H]2O)[C@@H]1O", "note": "[compound 161]", "RFU": 34}, {"compound": "CC(=O)N[C@H]1[C@H](O[C@H]2[C@@H](O)[C@@H](CO)O[C@@H](OCCCN)[C@@H]2O)O[C@H](CO)[C@@H](O)[C@@H]1O", "note": "[compound 171]", "RFU": 106}, {"compound": "CC(=O)N[C@H]1[C@@H](OCCCN)O[C@H](CO[C@@H]2O[C@H](CO)[C@@H](O)[C@H](O)[C@H]2NC(C)=O)[C@H](O[C@@H]2O[C@H](CO)[C@@H](O)[C@H](O)[C@H]2NC(C)=O)[C@@H]1O", "note": "[compound 177]", "RFU": 29}, {"compound": "CC(=O)N[C@H]1[C@H](OCCCN)O[C@H](CO)[C@@H](O[C@@H]2O[C@H](CO)[C@H](O[C@@H]3O[C@H](CO)[C@@H](O)[C@H](O)[C@H]3NC(C)=O)[C@H](O)[C@H]2O)[C@@H]1O", "note": "[compound 178]", "RFU": 33}, {"compound": "NCCCO[C@@H]1O[C@H](CO[C@@H]2O[C@H](CO)[C@@H](O)[C@H](O)[C@H]2O)[C@@H](O)[C@H](O)[C@H]1O", "note": "[compound 190]", "RFU": 28}, {"compound": "CC(=O)N[C@H]1[C@H](O[C@@H]2[C@H](O[C@]3(C(=O)O)C[C@H](O)[C@@H](NC(C)=O)[C@H]([C@H](O)[C@@H](CO)O[C@]4(C(=O)O)C[C@H](O)[C@@H](NC(C)=O)[C@H]([C@H](O)[C@@H](CO)O[C@]5(C(=O)O)C[C@H](O)[C@@H](NC(C)=O)[C@H]([C@H](O)[C@@H](CO)O[C@]6(C(=O)O)C[C@H](O)[C@@H](NC(C)=O)[C@H]([C@H](O)[C@H](O)CO)O6)O5)O4)O3)[C@@H](O)[C@H](O[C@H]3[C@H](O)[C@@H](O)[C@H](OCCN)O[C@@H]3CO)O[C@@H]2CO)O[C@H](CO)[C@H](O)[C@@H]1O", "note": "[compound 215]", "RFU": 53}, {"compound": "CC(=O)N[C@H]1[C@H](OCCN)O[C@H](CO)[C@@H](O[C@@H]2O[C@H](CO[C@]3(C(=O)O)C[C@H](O)[C@@H](NC(C)=O)[C@H]([C@H](O)[C@H](O)CO)O3)[C@H](O)[C@H](O)[C@H]2O)[C@@H]1O", "note": "[compound 257]", "RFU": 424}, {"compound": "CC(=O)N[C@H]1[C@H]([C@H](O)[C@H](O)CO)O[C@@](OC[C@H]2O[C@@H](O[C@H]3[C@H](O)[C@@H](O)[C@H](OCCN)O[C@@H]3CO)[C@H](O)[C@@H](O)[C@H]2O)(C(=O)O)C[C@@H]1O", "note": "[compound 261]", "RFU": 45}, {"compound": "CC(=O)N[C@H]1[C@H](O[C@H]2[C@@H](O)[C@@H](CO)O[C@@H](O[C@@H]3[C@@H](NC(C)=O)[C@H](OCCN)O[C@H](CO)[C@H]3O[C@@H]3O[C@@H](C)[C@@H](O)[C@@H](O)[C@@H]3O)[C@@H]2O)O[C@H](CO)[C@@H](O[C@@H]2O[C@@H](C)[C@@H](O)[C@@H](O)[C@@H]2O)[C@@H]1O[C@@H]1O[C@H](CO)[C@H](O)[C@H](O)[C@H]1O", "note": "[compound 266]", "RFU": 29}, {"compound": "CC(=O)NC1C(OCCCN)OC(COC2(C(=O)O)CC(O)C(NC(C)=O)C(C(O)C(O)CO)O2)C(O)C1O", "note": "(stereo not shown) [compound 267]", "RFU": 29}, {"compound": "CC(=O)N[C@H]1[C@H](OCCCN)O[C@H](CO)[C@@H](O[C@@H]2O[C@H](CO)[C@H](O)[C@H](O[C@@H]3O[C@H](CO)[C@H](O)[C@H](O)[C@H]3O)[C@H]2O)[C@@H]1O", "note": "[compound 291]", "RFU": 46}, {"compound": "CC(=O)N[C@H]1[C@H](OCCN)O[C@H](CO)[C@@H](O[C@@H]2O[C@H](CO[C@H]3O[C@H](CO)[C@@H](O[C@@H]4O[C@H](CO)[C@H](O)[C@H](O)[C@H]4O)[C@H](O)[C@H]3NC(C)=O)[C@H](O)[C@H](O)[C@H]2O)[C@@H]1O", "note": "[compound 295]", "RFU": 30}]}]}
